Data published in patent publication US11441181B2, “miRNA-124 as a biomarker” (priority 2013, dated 2022).

Assays:
ADA-M R5 HIV = assay: Treatment of PBMCs infected with ADA-M R5 HIV strain; type: cell-based
Experimental: For that purpose, peripheral blood mononuclear cells (PBMCs) of five healthy donors have been isolated by centrifugation on a FICOLL gradient. The cells have then been cultivated at 37° C., 5% CO2 to a density of 1×10^6 cells/mL in RPMI Glutamax medium (Life Technologies Ref 61870-010) supplemented with 10% fetal calf serum (FCS) (Thermo Fischer Ref SV30160.03) 1000 U/mL of IL2 (Peprotech Ref 200-02) and […] of PHA (Roche ref 1249738). Three days later, cells have been pooled and resuspended to a density of 1×10^6 cells/mL in RPMI Glutamax medium supplemented with 10% fetal calf serum (FCS) 1000 U/mL of IL-2 and distributed in 12 wells plates (Falcon Ref 353043) with 1.2 mL/well (4 wells per condition).
HIV-1 infection has been performed with 1 ng of Ada-M R5 HIV strain/well. Cells were treated for 6 days with 1.2 mL/well of 60 μM solution of 8-chloro-N-[4-(trifluoromethoxy)phenyl]quinolin-2-amine or with 0.12% DMSO (Sigma Ref D4818 as negative control).

[1] = test system: HIV-1 and HIV-2 T cell-tropic laboratory strains as well as clinical isolates of different subtypes; conditions: HIV-1 and HIV-2 laboratory strains and clinical isolates; cited from earlier work

FC(F)(F)Oc1ccc(Nc2ccc3cccc(Cl)c3n2)cc1 [8-chloro-N-[4-(trifluoromethoxy)phenyl]quinolin-2-amine]
effect on viruses in infected PBMCs (ADA-M R5 HIV): removal of the viruses
inhibition of replication in PBMC, active concentrations [1]: nM concentrations range
